# Read-outs that look alike come from different tables or passages of the source.
# What was measured:
# [1] = Drug-excipients compatibility study (thermal stability); assay type: physicochemical
# Procedure: Amounts of apixaban and other components identified here were determined chromatographically, e.g., High Performance Liquid Chromatograph (HPLC). Amounts of apixaban related substances identified here were also determined chromatographically, e.g., High Performance Liquid Chromatograph (HPLC).
# [2] = cited from earlier work
smiles,measurement,setting,value
"COc1ccc(-n2nc(C(N)=O)c3c2C(=O)N(c2ccc(N4CCCCC4=O)cc2)CC3)cc1 [apixaban, 1-(4-methoxyphenyl)-7-oxo-6-[4-(2-oxopiperidin-1-yl)phenyl]-4,5,6,7-tetrahydro-1H-pyrazolo[3,4-c]pyridine-3-carboxamide]",Any individual unspecified impurity,[1]; 15 Days 60° C. Close Vial,0.03 % w/w
same,Related substances: Acid Impurity,[1]; 15 Days 60° C. Close Vial,0.02 % w/w
same,Total impurities,[1]; 15 Days 60° C. Close Vial,0.07 % w/w
same,Any individual unspecified impurity,[1]; 30 Days 25° C. Close Vial,0.03 % w/w
same,Related substances: Acid Impurity,[1]; 30 Days 25° C. Close Vial,0.01 % w/w
same,Total impurities,[1]; 30 Days 25° C. Close Vial,0.07 % w/w
same,Any individual unspecified impurity,[1]; 30 Days 25° C. Open Vial,0.02 % w/w
same,Related substances: Acid Impurity,[1]; 30 Days 25° C. Open Vial,0.02 % w/w
same,Total impurities,[1]; 30 Days 25° C. Open Vial,0.07 % w/w
same,Any individual unspecified impurity,[1]; 30 Days 40° C. Close Vial,0.03 % w/w
same,Related substances: Acid Impurity,[1]; 30 Days 40° C. Close Vial,0.02 % w/w
same,Total impurities,[1]; 30 Days 40° C. Close Vial,0.09 % w/w
same,Any individual unspecified impurity,[1]; 30 Days 40° C. Open Vial,0.03 % w/w
same,Related substances: Acid Impurity,[1]; 30 Days 40° C. Open Vial,0.02 % w/w
same,Total impurities,[1]; 30 Days 40° C. Open Vial,0.09 % w/w
same,Any individual unspecified impurity,[1]; Initial,0.02 % w/w
same,Related substances: Acid Impurity,[1]; Initial,0.01 % w/w
same,Total impurities,[1]; Initial,0.06 % w/w
same,solubility,"[2]; 2 mg of apixaban, 100% propylene glycol, 20° C.",partially soluble
same,solubility,"[2]; higher amount of apixaban, 40% propylene glycol+60% glycerol, 20° C.",insoluble
same,solubility,"[2]; higher amount of apixaban, 40% propylene glycol+60% glycerol, 40° C.",gets dissolved
